Data reported in patent EP2282358A1, “Host material for light-emitting devices” (Solvay SA, priority 2009, dated 2011).
Where two headings read alike, the source gives them in different places.

Columns and labels:
[1] = HOMO and LUMO measurement (cyclic voltammetry and optical energy gap); format: physicochemical; conditions: for HOMO: estimated from the LUMO level and the optical energy gap (UV-visible absorption onset); for LUMO: from peak potential of 1st reduction wave, cyclic voltammetry in anhydrous tetrahydrofuran, ferrocene internal standard
Description: The LUMO (lowest unoccupied molecular orbital) levels are estimated from cyclic voltammetry. Voltammetric measurements are performed using a PC-controlled Autolab PGSTAT128N electrochemical workstation coupled with a 663 VA Stand measure unit. Cyclic voltammograms are recorded at room temperature under an argon atmosphere in anhydrous tetrahydrofuran using 0.1 M tetrabutylammonium hexafluorophosphate (Fluka electrochemical grade) as supporting electrolyte. The working electrode is a glassy carbon disk and the counter electrode is a platinum wire or a glassy carbon rod. A silver/silver chloride electrode filled with a methanolic saturated KCl solution or a platinum wire pseudo-reference has been used as reference electrode. The sample solutions (0.5 mM) are outgassed with argon for 10 minutes before measurement. Measurements are performed with a sweep rate fixed to 0.1 V/s. Ferrocene is used as internal standard.
The LUMO level is estimated from the peak potential of the 1st observed reduction wave (E1 reduct.) using the following equation: ELUMO -(-4.8) = -[E1 reduct-EOX ½(Fc/(Fc)^+)] [formula] where EHOMO (ferrocene) has been taken equal to -4.8 eV below the vacuum level and EOX ½ (Fc/Fc^+) corresponds to the half-wave oxidation potential of the ferrocene internal standard.
The HOMO level could not be estimated directly from CV measurements because the 1st oxidation wave lies beyond the stability window of the two tested solvents (tetrahydrofuran and dichloromethane). The HOMO level is thus estimated from the LUMO level and optical energy gap (Eopt g): EHOMO = ELUMO -Eopt g , [formula] the optical energy gap being determined from the absorption onset in the UV-visible absorption spectrum.

[2] = Solubility tests in organic solvents; format: physicochemical; conditions: for solubilities toward chlorobenzene and toluene: result in words

| HOMO [1] [eV] | LUMO [1] [eV] | Solubility in chlorobenzene [2] [wt%] | Solubility in toluene [2] | solubility for most organic solvents [2] | SMILES | solubilities toward chlorobenzene and toluene [2] | Solubility in chlorobenzene ([2]; solvent chlorobenzene) [wt%] | Solubility in toluene ([2]; solvent toluene) [wt%] |
| --- | --- | --- | --- | --- | --- | --- | --- | --- |
| -6.0 | -2.3 | – | – | – | CC(C)(C)c1ccc(-c2nnc(-c3cc(-c4nnc(-c5ccc(C(C)(C)C)cc5)o4)cc(C(C)(C)C)c3)o2)cc1 [tBu-OXD7] | good solubilities | > 7.2 | > 5 |
| -6.0 | -2.3 | < 1.5 | Not soluble | lacks solubility | CC(C)(C)c1ccc(-c2nnc(-c3cccc(-c4nnc(-c5ccc(C(C)(C)C)cc5)o4)c3)o2)cc1 [OXD7, reference compound] | – | – | – |

| SMILES | HOMO [1] [eV] | LUMO [1] [eV] | Solubility in chlorobenzene [2] [wt%] | Solubility in toluene [2] | solubility for most organic solvents [2] | solubilities toward chlorobenzene and toluene [2] | Solubility in chlorobenzene ([2]; solvent chlorobenzene) [wt%] | Solubility in toluene ([2]; solvent toluene) [wt%] |
| --- | --- | --- | --- | --- | --- | --- | --- | --- |
| CC(C)(C)c1ccc(-c2nnc(-c3cc(-c4nnc(-c5ccc(C(C)(C)C)cc5)o4)cc(C(F)(F)C(F)(F)C(F)(F)C(F)(F)C(F)(F)C(F)(F)F)c3)o2)cc1 [Formula C6F13-OXD7] | -6.1 | -2.5 | – | – | – | good solubilities | > 4.5 | 2.5 |
